Data from patent US20230337677A1, “ARYL AND PYRIDYL AMIDE PESTICIDES AND COMPOSITIONS THEREOF” (University of Florida Research Foundation, Incorporated, priority 2019, published 2023).
Structures can show the parent of a compound that is named as a salt.

Experiments:
Assay type in all cases: in vivo
[1] = tested on: Aedes aegypti strain Orlando (sensitive); experiment: Topical toxicity (24 hour mortality), Ae. aegypti Orlando; details: topical application, 24 h mortality, female adults, susceptible Orlando strain
Procedure: (§1) The Aedes aegypti strains Orlando (sensitive) as well as the Puerto Rico (PR, resistant to permethrin) were used. The Anopheles gambiae (G3 sensitive strain, as well as Akron kdr (Akdr) strain, resistant to pyrethroids were also assessed. The larvae were provided by the USDA, Gainesville Fl, and raised in a pan with tap water maintained at 28° C. Larvae were fed a ground liver and yeast mixture, and pupae were placed in emergence cages. Adults were held at 28° C. and provided with cotton balls soaked in 10% sugar water for rearing and for all bioassays.
(§2) Female adults from 3 to 6 days were used for the experiments. The drug was dissolved in ethanol and then applied with a micro-applicator on the thorax, between the legs: 200 nL of drug per female mosquito, with different concentrations of the drug; 10 mosquitos were treated together per concentration per replicate, and put together in a small container with free access to sweet water. Mortality, i.e. no visible movement, was assessed 24 hours after treatment. Every compound was assessed on at least 3 different cohorts of mosquitoes, and the LD50 values and slopes were determined with Probit analysis, corrected with Abbott's formula.

[2] = tested on: Aedes aegypti mosquitoes, insecticide-susceptible Orlando strain; details: for 1 h % Repellency, 100 μg/cm^2: screened at 100 μg/cm^2, strain not given; for vapor repellency / mortality, statement in words (Example 8): structure-activity analysis of Table 2; for 1 h Repellency EC50, μg/cm^2: (OR)
Procedure: The tubes as shown were held horizontally on the bench.
For assessing behavioral repellency (FIG. 1), Aedes aegypti mosquitoes were used from the insecticide-susceptible Orlando strain and the pyrethroid-resistant Puerto Rico strain. Sixteen female mosquitoes were transferred to a glass tube (12.5 cm long, 2.5 cm outer diameter) with the ends covered with netting. Each compound was dissolved in 1 mL of acetone and serial dilutions ranging from 30-0.01 μg/ml were made. Circular filter papers (5 cm^2) were saturated with 50 μL of each concentration and allowed 10 min for solvent evaporation. The filter papers were then placed in clear conical polypropylene caps and fixed to the end of the glass tubes. The netting prevented mosquito contact with the filter paper. The tubes were then aligned with a mark denoting the midline and the proportion of mosquitoes on the chemically treated side was scored for up to 60 min. At the end of the test, the tube was placed in a cage and the ability of the mosquitoes to fly out of the tube was assessed for 30 min. […] This post-test evaluated whether any non-responding mosquitoes (not repelled) resulted from intoxication or disorientation from the test chemical. For assessment of lethality, insects were held for 24 hr under constant exposure in glass tubes having treated filter papers.
Compounds were first screened at 100 μg/cm^2 for repellency and 24 h mortality.

[3] = tested on: Anopheles gambiae Akron kdr (Akdr) strain, resistant to pyrethroids; experiment: Topical toxicity (24 hour mortality), An. gambiae Akdr; details: for An. gambiae AKDR LD50: topical application, 24 h mortality, female adults, pyrethroid-resistant Akdr strain; for An. gambiae RR (resistance ratio): 24 h LD50 resistant strain (AKDR)/24 h LD50 susceptible strain (G3)
Procedure: as §1, §2

[4] = tested on: Anopheles gambiae G3 sensitive strain; experiment: Topical toxicity (24 hour mortality), An. gambiae G3; details: topical application, 24 h mortality, female adults, susceptible strain G3
Procedure: as §1, §2

## O=C(Nc1cc(Cl)nc(Cl)c1)C(Cl)(Cl)Cl [GMR059]
[1]
  Ae. aegypti OR LD50: 866 ng/mg

## CCCC(=O)Nc1cccc(OC(F)(F)F)c1 [GMR162]
[2]
  1 h % Repellency, 100 μg/cm^2: 50%
[3]
  An. gambiae AKDR LD50: >1000 ng/mg
[4]
  An. gambiae G3 LD50: >1000 ng/mg

## O=C(Nc1cc(Cl)nc(C(F)(F)F)c1)C(F)(F)C(F)(F)F [GMR036]
[3]
  An. gambiae RR (resistance ratio): 0.7
  An. gambiae AKDR LD50: 10.0 ng/mg
[1]
  Ae. aegypti OR LD50: 25 ng/mg
[4]
  An. gambiae G3 LD50: 13.5 ng/mg

## CC(C)CC(=O)Nc1cc(Cl)nc(Cl)c1 [GMR145]
[1]
  Ae. aegypti OR LD50: 775 ng/mg

## O=C(Nc1cc(Br)nc(Br)c1)C(F)F [GMR039]
[3]
  An. gambiae RR (resistance ratio): 1.1
  An. gambiae AKDR LD50: 23.8 ng/mg
[1]
  Ae. aegypti OR LD50: 2253 ng/mg
[4]
  An. gambiae G3 LD50: 20.8 ng/mg

## O=C1C2=C(CCCC2)C(=O)N1COC(=O)C(F)(F)C(F)(F)C(F)(F)F [GMR096]
[1]
  Ae. aegypti OR LD50: 2538 ng/mg
[4]
  An. gambiae G3 LD50: >100 ng/mg

## O=C(CCC1CCCCC1)Nc1c(Cl)cc(C(F)(F)F)cc1Cl [MTFI-3-5A]
[2]
  1 h % Repellency, 100 μg/cm^2: 0%

## C=CCCCC(=O)Nc1ccccc1C(F)(F)F [MTFI-3-2E]
[2]
  1 h % Repellency, 100 μg/cm^2: 76%

## CC(=O)Nc1ccc(C(F)(F)F)cc1 [MTFI-3-4A]
[2]
  1 h % Repellency, 100 μg/cm^2: 8%

## O=C(Nc1ccccn1)C(F)(F)C(F)(F)C(F)(F)F [GMR060]
[1]
  Ae. aegypti OR LD50: 1758 ng/mg

## CC(C)(C)OC(=O)N(C(=O)C(F)(F)F)c1cc(Cl)nc(Cl)c1 [GMR119]
[1]
  Ae. aegypti OR LD50: 343 ng/mg

## O=C(Nc1cc(Cl)nc(Cl)c1)C(C(F)(F)F)C(F)(F)F [GMR174]
[1]
  Ae. aegypti OR LD50: 500 ng/mg

## O=C(NCC(F)(F)F)Nc1c(Cl)cc(C(F)(F)F)cc1Cl [MTFI-4-FPL-A]
[2]
  1 h % Repellency, 100 μg/cm^2: 0%
  vapor repellency / mortality, statement in words (Example 8): reduced repellency

## CC1(C)C(C=C(Cl)Cl)C1C(=O)O (stereo not drawn) [TFA, 1R-transfluthrin acid, reference compound]
[2]; alone
  repellency of TFA alone: inactive alone

## COC(=O)c1ccccc1C(F)(F)F [MTFI-5-13A]
[2]
  1 h % Repellency, 100 μg/cm^2: 6%

## O=C(Nc1c(F)c(F)nc(F)c1F)C(F)(F)F [GMR081]
[3]
  An. gambiae AKDR LD50: >100 ng/mg
[1]
  Ae. aegypti OR LD50: 698 ng/mg

## COC(=O)c1cc(C)c(C(F)(F)F)cc1N [MTFI-5-12C]
[2]
  1 h % Repellency, 100 μg/cm^2: 30%
  vapor repellency / mortality, statement in words (Example 8): moderate repellency in some instances

## O=C(CCl)Nc1cccc(F)c1 [MTFI-5-1A]
[2]
  1 h % Repellency, 100 μg/cm^2: 6%

## O=C(Nc1ccc(C(F)(F)F)cc1)c1cc(Cl)cc(Cl)c1 [MTFI-4-NA-1C]
[2]
  1 h % Repellency, 100 μg/cm^2: 8%
  vapor repellency / mortality, statement in words (Example 8): poor results

## Cc1cc(NC(=O)C(F)(F)C(F)(F)C(F)(F)C(F)(F)C(F)(F)F)cc(C)n1 [GMR073]
[1]
  Ae. aegypti OR LD50: >3000 ng/mg

## O=C(Nc1ccnc(C(F)(F)F)c1)C(F)(F)C(F)(F)C(F)(F)C(F)(F)C(F)(F)F [GMR070]
[3]
  An. gambiae AKDR LD50: 1261 ng/mg
[1]
  Ae. aegypti OR LD50: 1261 ng/mg

## COc1cc(NC(=O)C(F)(F)C(F)(F)C(F)(F)C(F)(F)C(F)(F)F)ccn1 [GMR071]
[1]
  Ae. aegypti OR LD50: >2000 ng/mg

## O=C(CCl)Nc1cccc(O)c1 [MTFI-5-15A]
[2]
  1 h % Repellency, 100 μg/cm^2: 36%

## C=CC(=O)Nc1ccccc1C(F)(F)F [GMR021]
[2]
  1 h Repellency EC50, μg/cm^2: 32 μg/cm^2
  1 h % Repellency, 100 μg/cm^2: 92%

## O=C(Nc1ccccc1C(F)(F)F)C(F)(F)F [MTFI-1-4C]
[2]
  1 h % Repellency, 100 μg/cm^2: −6%

## O=C(CCC1CCCCC1)Nc1ccc(C(F)(F)F)cc1 [MTFI-3-4B]
[2]
  1 h % Repellency, 100 μg/cm^2: 8%

## CC(=O)N(C(C)=O)c1ccccc1OC(F)(F)F [GMR169]
[2]
  1 h % Repellency, 100 μg/cm^2: 82%
[3]
  An. gambiae AKDR LD50: >1000 ng/mg
[4]
  An. gambiae G3 LD50: >1000 ng/mg

## O=C(CCC1CCCCC1)Nc1cccc(C(F)(F)F)c1 [MTFI-3-3A]
[2]
  1 h % Repellency, 100 μg/cm^2: 16%

## COC(=O)c1ccccc1N(C)C(F)(C(F)(F)F)C(F)(F)F [MTFI-5-11A]
[2]
  vapor repellency / mortality, statement in words (Example 8): moderate repellency in some instances

## O=C(CCl)Nc1cc(C(F)(F)F)cc(C(F)(F)F)c1 [MTFI-3-1F]
[2]
  1 h % Repellency, 100 μg/cm^2: 88%

## CC1(C)[C@H](C=C(Cl)Cl)[C@H]1C(=O)Nc1cc(F)cc(F)c1 [GMR179]
[2]
  1 h % Repellency, 100 μg/cm^2: 30%

## O=C(Nc1ccnc(Cl)c1)C(F)(F)C(F)(F)C(F)(F)C(F)(F)C(F)(F)F [GMR068]
[3]
  An. gambiae AKDR LD50: 3425 ng/mg
[1]
  Ae. aegypti OR LD50: 3425 ng/mg

## COC(=O)c1cc(F)c(F)cc1N [MTFI-5-12A]
[2]
  1 h Repellency EC50, μg/cm^2: 23 μg/cm^2
  1 h % Repellency, 100 μg/cm^2: 92%
  vapor repellency / mortality, statement in words (Example 8): moderate repellency in some instances

## CCCCOC(=O)c1ccccc1O [MTFI-5-14C]
[2]; in vivo
  knockdown in 1 hr repellency test (XXkd = number of insects incapacitated out of 16 females): 8

## CCCCCC(=O)N(C(=O)CCCCC)c1cccc(OC(F)(F)F)c1 [GMR165]
[2]
  1 h % Repellency, 100 μg/cm^2: 62%

## CCC(=O)Nc1ccccc1OC(F)(F)F [GMR170]
[2]
  1 h Repellency EC50, μg/cm^2: 15 μg/cm^2
  1 h % Repellency, 100 μg/cm^2: 94%

## CCOC(=O)c1ccccc1C(F)(F)F [MTFI-5-13B]
[2]
  1 h % Repellency, 100 μg/cm^2: 12%

## CCCC(=O)N(C(=O)CCC)c1cccc(OC(F)(F)F)c1 [GMR163]
[2]
  1 h % Repellency, 100 μg/cm^2: 50%
[3]
  An. gambiae AKDR LD50: >1000 ng/mg
[4]
  An. gambiae G3 LD50: >1000 ng/mg

## CCCC(=O)Nc1ccccc1OC(F)(F)F [GMR171]
[2]
  1 h Repellency EC50, μg/cm^2: 29 μg/cm^2
  1 h % Repellency, 100 μg/cm^2: 100%

## O=C(Nc1cc(C(F)(F)F)cc(C(F)(F)F)c1)C(F)(F)C(F)(F)C(F)(F)F [MTFI-4-2D]
[2]
  1 h % Repellency, 100 μg/cm^2: 12%

## CCOC(=O)c1ccccc1O [MTFI-5-14B]
[2]
  1 h % Repellency, 100 μg/cm^2: 30%
  vapor repellency / mortality, statement in words (Example 8): moderate repellency and toxicity

## COC(=O)c1cc(C(F)(F)F)ccc1N [MTFI-5-12D]
[2]
  1 h % Repellency, 100 μg/cm^2: 84%
  vapor repellency / mortality, statement in words (Example 8): moderate repellency in some instances

## COC(=O)c1cccc(C(F)(F)F)c1N [MTFI-5-512B]
[2]
  1 h % Repellency, 100 μg/cm^2: 42%

## COC(=O)c1cccc(C(F)(F)F)c1N [MTFI-5-12B]
[2]
  vapor repellency / mortality, statement in words (Example 8): moderate repellency in some instances

## CCCCCC(=O)Nc1c(F)c(F)nc(F)c1F [GMR065]
[3]
  An. gambiae AKDR LD50: 1225 ng/mg
[1]
  Ae. aegypti OR LD50: 1225 ng/mg

## O=C(NCC(F)(F)F)c1cc(F)c(F)c(F)c1 [GMR173]
[2]
  1 h % Repellency, 100 μg/cm^2: 44%
  vapor repellency / mortality, statement in words (Example 8): some repellency and mortality

## O=C(CSC(F)(F)F)Nc1cc(F)c(F)c(F)c1 [GMR177]
[2]
  1 h % Repellency, 100 μg/cm^2: 30%
  vapor repellency / mortality, statement in words (Example 8): poor activity
[1]
  Ae. aegypti OR LD50: 220 ng/mg

## O=C(Nc1cc(Cl)cc(Cl)n1)C(F)(F)C(F)(F)C(F)(F)F [GMR078]
[3]
  An. gambiae AKDR LD50: >100 ng/mg
[1]
  Ae. aegypti OR LD50: 5668 ng/mg

## COC(=O)c1ccccc1O [MTFI-5-14A]
[2]
  1 h % Repellency, 100 μg/cm^2: 70%
  vapor repellency / mortality, statement in words (Example 8): moderate repellency and toxicity

## O=C(Nc1ccc(Cl)cn1)C(F)(F)C(F)(F)C(F)(F)F [GMR079]
[3]
  An. gambiae AKDR LD50: >100 ng/mg
[1]
  Ae. aegypti OR LD50: >1000 ng/mg

## O=C(Nc1ncc(C(F)(F)F)cc1Cl)C(F)(F)C(F)(F)C(F)(F)F [GMR080]
[3]
  An. gambiae AKDR LD50: >100 ng/mg
[1]
  Ae. aegypti OR LD50: >1000 ng/mg
